Literature values, collected in US6770617B2, “Softener composition” (Kao Corporation, priority 2001, dated 2004).

Details: 1-octanol/water; actual value if there was one, otherwise Clog P calculated with CLOGP v4.01

Row | log P | SMILES
1 | 0.99 | CCCOC(C)COC(C)CO (stereo not drawn) [(c-2), Dipropylene glycol monopropyl ether]
2 | 0.54 | CCCCCOCC(O)CO (stereo not drawn) [(c-1), Pentyl glyceryl ether]
3 | 1.32 | OCCOCCOCCOc1ccccc1 [(c-3), Triethylene glycol monophenyl ether]
